Consider seven molecules from paper PMC11989707, “Synthesis, Characterization, and Preliminary In Vitro Anticancer Activity of Zinc Complexes Containing Amino Acid-Derived Imidazolium-Based Dicarboxylate Ligands” (International Journal of Molecular Sciences, 2025).

Like-named read-outs stand apart in the source and are kept apart here. Bounds are passed on as bounds.

For series [1], the system named is HaCaT cells (human keratinocytes). The series can be described thus: Resazurin cell viability assay, non-malignant keratinocytes. Type of series: cell-based. As to conditions: resazurin. The method, then: (§1) The cytotoxicity of complexes 2 was evaluated in vitro by determining the half inhibitory concentrations (IC50) against four human cell lines: wild-type BRAF melanoma (MeWo), lung adenocarcinoma (A549), bladder cancer (T24), and non-cancerous skin keratinocytes (HaCaT). The IC50 values were calculated from cell viability values obtained after 72 h of exposure of the drug to cells using the resazurin assay. The viability results, summarized in Table 1 (as μM concentrations) and illustrated in Figure 4, also include the values of the selectivity index (SI). The SI was calculated by dividing the IC50 value in the non-cancerous cells by that in the cancer cells. The higher the SI value, the higher the selectivity of the compound against cancer cells. This parameter also allows for a comparison of the selectivity of the investigated compound with the selectivity of the standard anticancer drug. For comparison, the cytotoxicity of two clinical anticancer drugs, carboplatin and gemcitabine, as well as imidazolium dicarboxylate precursor ligands (HL^R, 1) was evaluated under identical experimental conditions (see viability graphs in Figure 4 and Figure S7). […] Two noteworthy observations can be drawn from Table 1. […] Carboplatin is used for the treatment of ovarian cancer, lung cancer, bladder cancer, and head and neck cancer. Second, these zinc-based complexes were more cytotoxic to cancer cells than to non-malignant HaCaT cells, underscoring their potential therapeutic selectivity.
(§2) HaCaT cells (human keratinocytes) A549 (human lung adenocarcinoma), MeWo (human melanoma), and T24 (human urinary bladder carcinoma) were purchased from Cell Lines Service (CLS). The cells were maintained in Dulbecco’s Modified Eagle Medium (DMEM) supplemented with 10% fetal bovine serum and 1% penicillin/streptomycin. All cell lines were cultured at 37 °C and 5% CO2 with saturating humidity.
(§3) The resazurin assay is a commonly used colorimetric/fluorescent method to assess cell viability. This approach is based on the ability of living cells to convert the blue dye resazurin into the pink soluble resorufin product. The number of viable cells is directly correlated with the amount of resorufin generated. Between 3000 and 6000 cells per well were seeded in 96-well plates and allowed to grow for 24 h. […] The compounds were dissolved in sterile water to prepare a stock solution. Working solutions were obtained by serial dilution in the culture medium and were used immediately to treat the cells. Following this treatment period, the cells were rinsed once with phosphate buffered saline (PBS), and 150 μL of resazurin solution (20 µg/mL in medium) was added to each well. The plates were then incubated for 4–5 h at 37 °C with 5% CO2. Finally, absorbance was measured at 540 and 620 nm using a multiwell plate spectrophotometer (Imark Bio Rad Laboratories Inc., Hercules, CA, USA). The results were reported as percentages of cell viability compared to untreated controls. All data represent the mean ± standard error of the mean (SEM) of at least three independent experiments. The selectivity index (SI) values for each cancer cell line were determined by calculating the ratio of the IC50 value in the non-malignant HaCaT cell line to the IC50 value in the corresponding cancer cell line, based on data from each independent experiment.
A general note: The colour change of resazurin is a common sign of viable cells or microbes.

In a further series the test system is MeWo (human melanoma). The experiment in a line: Resazurin cell viability assay, melanoma. To be noted: for IC50: resazurin; for Selectivity Index MeWo: IC50 HaCaT / IC50 MeWo. Type of series: cell-based. The method, then: as §1, with “The IC50 values were calculated from cell viability values obtained after 72 h of exposure of the drug to cells using the resazurin assay.” left out
as §2, §3

For series [2], the system named is T24 (human urinary bladder carcinoma). The experiment in a line: Resazurin cell viability assay, bladder cancer. Type of series: cell-based. To be noted: for IC50: resazurin. On the procedure: as §1, with “The IC50 values were calculated from cell viability values obtained after 72 h of exposure of the drug to cells using the resazurin assay.” left out
as §2, §3

Series [3] concerns A549 (human lung adenocarcinoma). The experiment in a line: Resazurin cell viability assay, lung adenocarcinoma. Type of series: cell-based. As to conditions: for IC50: resazurin. The method, then:
as §1, §2, §3

The nature of series [4]: Resazurin cell viability assay, non-malignant keratinocytes. As to conditions: human, HaCaT keratinocytes (non-malignant); HaCaT, highest concentrations tested, 72 h (Figure 4); read-out: viability of non-malignant cells. Type of series: cell-based, human. The method, then:
as §1, §2, §3

The mark [5] stands for this setting: Homo sapiens, HaCaT, 96 h, mean ± SEM (Table S3), read-out: IC50 HaCaT (Non-malignant keratinocyte).
[6] abbreviates: Homo sapiens, MeWo, 96 h, mean ± SEM (Table S3).
[7] abbreviates: Homo sapiens, 96 h, mean ± SEM (Table S3).
[8] abbreviates: IC50 HaCaT / IC50 T24, 96 h, mean ± SEM (Table S3).
The mark [9] stands for this setting: Homo sapiens, A549, 96 h, mean ± SEM (Table S3).
[10] abbreviates: IC50 HaCaT / IC50 A549, 96 h, mean ± SEM (Table S3).
The mark [11] stands for this setting: 96 h, mean ± SEM (Table S3), read-out: IC50 HaCaT (Non-malignant keratinocyte).
The mark [12] stands for this setting: IC50 HaCaT / IC50 T24, 72 h, mean ± SEM.
The mark [13] stands for this setting: IC50 HaCaT / IC50 A549, 72 h, mean ± SEM.

As usually defined, the IC50 is the concentration that gives 50% inhibition. As a reminder, the viability is a per cent measure of how many cells are alive, often set against a control.

As to `O=c1[nH]cc(F)c(=O)[nH]1` [5-Fluorouracil], the concentration for half-maximal inhibition (IC50) in series [1] (setting [5]) was determined as 400 nM; with MeWo (human melanoma) (setting [6]) it was 1300 nM; in series [2] (setting [7]), 6300 ± 600 nM; in series [3] (setting [9]), 1900 ± 700 nM. Also, the “Selectivity Index MeWo” value in the series with MeWo (human melanoma) (96 h, mean ± SEM (Table S3)) is recorded as 0.3 ± 0.0. Also, in series [2] (setting [8]), the “Selectivity Index T24” value amounted to 0.1 ± 0.0. The “Selectivity Index A549” value in series [3] (setting [10]) turned out to be 0.3 ± 0.1.
For `N.N.O=C([O-])C1(C(=O)[O-])CCC1.[Pt+2]` [Carboplatin], the IC50 turned out to be 35900 ± 3800 nM in series [1] (72 h, mean ± SEM, monomer molecular weight used, read-out: IC50 HaCaT (Non-Malignant Keratinocyte)); 11400 ± 1000 nM in series [1] (setting [11]); 100000 ± 17400 nM with MeWo (human melanoma) (72 h, mean ± SEM); 23000 ± 5500 nM in the series with MeWo (human melanoma) (96 h, mean ± SEM (Table S3)); 22100 ± 2600 nM in series [2] (72 h, mean ± SEM); 7300 ± 1100 nM in series [2] (96 h, mean ± SEM (Table S3)). Further, the IC50 in series [3] (72 h, mean ± SEM) was 42900 ± 1400 nM; in series [3] (96 h, mean ± SEM (Table S3)), 21100 ± 4000 nM. The “Selectivity Index MeWo” value in the series with MeWo (human melanoma) (72 h, mean ± SEM) was found to be 0.4 ± 0.0; with MeWo (human melanoma) (96 h, mean ± SEM (Table S3)), 0.6 ± 0.2. In addition, the “Selectivity Index T24” value in series [2] (setting [12]) was 1.7 ± 0.2. Moreover, the results for the “Selectivity Index A549” value in series [3] (setting [13]) and in series [3] (setting [10]) were 0.8 ± 0.1 and 0.6 ± 0.2, respectively.
`N.N.[Cl][Pt][Cl]` [Cisplatin]: the IC50 is 2200 ± 500 nM in series [1] (setting [11]); 2200 ± 600 nM with MeWo (human melanoma) (96 h, mean ± SEM (Table S3)); 1600 ± 400 nM in series [2] (96 h, mean ± SEM (Table S3)); 3800 ± 100 nM in series [3] (96 h, mean ± SEM (Table S3)). Besides, the “Selectivity Index MeWo” value in the series on MeWo (human melanoma) (96 h, mean ± SEM (Table S3)) is 1.0 ± 0.0. For the same molecule, in series [2] (setting [8]), the “Selectivity Index T24” value is reported as 1.3 ± 0.0. Also, the “Selectivity Index A549” value in series [3] (setting [10]) is 0.6 ± 0.1.
Consider `COc1cccc2c1C(=O)c1c(O)c3c(c(O)c1C2=O)C[C@@](O)(C(=O)CO)C[C@@H]3O[C@H]1C[C@H](N)[C@H](O)[C@H](C)O1` [Doxorubicin], for which the IC50 worked out at 8.1 nM in series [1] (setting [5]), 15.3 ± 3.6 nM with MeWo (human melanoma) (setting [6]), 29.8 ± 2 nM in series [2] (setting [7]) and 38.4 ± 6.6 nM in series [3] (setting [9]). Also, the “Selectivity Index MeWo” value in the series with MeWo (human melanoma) (96 h, mean ± SEM (Table S3)) stood at 0.6 ± 0.1. For the same molecule, the “Selectivity Index T24” value in series [2] (setting [8]) worked out at 0.3 ± 0.0. For the same molecule, in series [3] (setting [10]), the “Selectivity Index A549” value amounted to 0.2 ± 0.0.
Regarding `Nc1ccn([C@@H]2O[C@H](CO)[C@@H](O)C2(F)F)c(=O)n1` [Gemcitabine], the IC50 in series [1] (Homo sapiens, HaCaT, 72 h, mean ± SEM, read-out: IC50 HaCaT (Non-Malignant Keratinocyte)) came out at 22.1 ± 3.1 nM; in series [1] (setting [5]), 10.6 ± 4.3 nM; in the series on MeWo (human melanoma) (Homo sapiens, MeWo, 72 h, mean ± SEM), 7.3 ± 0.7 nM; with MeWo (human melanoma) (setting [6]), 1.9 ± 1.5 nM; in series [2] (Homo sapiens, 72 h, mean ± SEM), 2.3 ± 0.3 nM; in series [2] (setting [7]) it was 1.7 ± 1.5 nM. Further, the half-inhibitory concentration (IC50) in series [3] (Homo sapiens, A549, 72 h, mean ± SEM) amounted to 5.6 ± 0.1 nM; in series [3] (setting [9]), 1.9 ± 1.5 nM. Besides, in series [4], the viability at 72 h turned out to be 13%. The “Selectivity Index MeWo” value in the series on MeWo (human melanoma) (72 h, mean ± SEM) is 3.3 ± 0.8; with MeWo (human melanoma) (96 h, mean ± SEM (Table S3)), 5.1 ± 0.2. In addition, in the series on MeWo (human melanoma) (MeWo, highest concentrations tested, 72 h (Figure 4)), the “cell viability of melanoma cells” value is ≥ 35%. Also, the figures for the “Selectivity Index T24” value in series [2] (setting [12]) and in series [2] (setting [8]) were 9.3 ± 0.4 and 6.5 ± 1.4, respectively. Further, the “Selectivity Index A549” value in series [3] (setting [13]) was found to be 4.0 ± 0.5; in series [3] (setting [10]), 5.1 ± 0.3.
Take `CC(=O)O[C@H]1C(=O)[C@@]2(C)[C@H]([C@H](OC(=O)c3ccccc3)[C@]3(O)C[C@H](OC(=O)[C@H](O)[C@@H](NC(=O)c4ccccc4)c4ccccc4)C(C)=C1C3(C)C)[C@]1(OC(C)=O)CO[C@@H]1C[C@@H]2O` [Paclitaxel]: the IC50 turned out to be 0.3 nM in series [1] (setting [5]), 0.7 nM in the series with MeWo (human melanoma) (setting [6]), 1.4 ± 0.3 nM in series [2] (setting [7]) and 3.5 ± 0.9 nM in series [3] (setting [9]). For the same molecule, the “Selectivity Index MeWo” value in the series on MeWo (human melanoma) (96 h, mean ± SEM (Table S3)) is 0.5 ± 0.0. Further, the “Selectivity Index T24” value in series [2] (setting [8]) was found to be 0.3 ± 0.1. For the same molecule, in series [3] (setting [10]), the “Selectivity Index A549” value was found to be 0.1 ± 0.0.
In the case of `CCN(CC)CCNC(=O)c1c(C)[nH]c(/C=C2\C(=O)Nc3ccc(F)cc32)c1C` [Sunitinib], the half-maximal inhibitory concentration (IC50) in series [1] (setting [5]) was determined as 1000 ± 100 nM; in the series on MeWo (human melanoma) (setting [6]) it was 900 ± 400 nM; in series [2] (setting [7]), 1900 ± 1100 nM; in series [3] (setting [9]) it was 1500 ± 700 nM. Moreover, the “Selectivity Index MeWo” value in the series on MeWo (human melanoma) (96 h, mean ± SEM (Table S3)) worked out at 1.5 ± 0.5. Moreover, the “Selectivity Index T24” value in series [2] (setting [8]) came to 1.5 ± 0.8. For the same molecule, the “Selectivity Index A549” value in series [3] (setting [10]) is on record as 1.2 ± 0.6.
